In US9796719B2, “Compounds and pharmaceutical compositions thereof for the treatment of inflammatory disorders” (GALAPAGOS NV, priority 2013, dated 2017) one finds IC50 data, which are given here for 23 molecules.

A word on the IC50: it is the concentration that inhibits the measured activity by half. Higher therefore signals lower potency.

Test [1] concerns the target T1, hENPP2 (UniProtKB/SwissProt Sequence ref Q13822) (Homo sapiens (Human), UniProt Q13822). The test is described as follows: LPC hENPP2 assay (choline release, LPC as substrate). The format is biochemical. The essentials: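 Detection is coupled: choline oxidase produces peroxide, which HRP uses to form quinoneimine dye from TOOS and 4-aminoantipyrine, read at 555 nm. The reaction is stopped with 20 mM EGTA in the developer mix, then incubated 30 min at room temperature; inhibition lowers signal.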

The target of test [2] is T1, hENPP2. The test is described as follows: FS3 hENPP2 assay (fluorogenic substrate FS-3). Type of test: biochemical. As to conditions: hENPP2, FS-3 as substrate. The procedure: Compound IC50 values are determined in a fluorescent hENPP2 (UniProtKB/SwissProt Sequence ref Q13822) biochemical assay using the fluorogenic autotaxin substrate FS-3 as substrate. FS-3 is a doubly labeled analog of LPC wherein the fluorophore is quenched through intramolecular energy transfer. Without hENPP2, the emission of the probe is quenched. If the substrate is hydrolyzed by hENPP2, the emission of the probe is not quenched anymore resulting in a fluorescence increase. Inhibition of hENPP2 by compounds will result in a decrease of the signal.
10 μL of a dilution series of compound, starting from 20 μM highest concentration, ⅕ dilution, is added to the wells. hENPP2 is used at a final concentration of 0.4 μg/mL or 0.64 μg/mL (it will be appreciated by the skilled person that the potency read out is independent of the enzyme concentration). The enzyme is diluted in 50 mM Tris-HCl pH 8.0, 250 mM NaCl, 5 mM KCl, 1 mM MgCl2, 1 mM CaCl2, 0.1% fatty acid free BSA in a total volume of 20 μL. Enzyme mixture is added to compounds and the resulting mixture is incubated for 30 min at room temperature under shaking. The reaction is started by the addition of 20 μL of 0.75 μM FS-3 diluted in the same buffer as described above and the mixture is incubated at 30° C. for 30 min. Fluorescence is read on the Envision (Excitation 485 nm, emission 520 nm).

As for `CN(c1nc(-c2ccc(F)cc2)cs1)c1c(CC#N)nc2ccc(C3=CCN(S(C)(=O)=O)CC3)nn12` [Compound 196, 2-(3-((4-(4-fluorophenyl)thiazol-2-yl)(methyl)amino)-6-(1-(methylsulfonyl)-1,2,3,6-tetrahydropyridin-4-yl)imidazo[1,2-b]pyridazin-2-yl)acetonitrile], the IC50 is more than 1000 nM against hENPP2 [1] and 0.01 to 25 nM against hENPP2 [2].

For the molecule `CCc1nc2ccc(N3CCC(CO)C3)nn2c1N(C)c1nc(-c2ccc(F)cc2)cs1` (stereo not shown) [Cpd 143, (1-(2-ethyl-3-((4-(4-fluorophenyl)thiazol-2-yl)(methyl)amino)imidazo[1,2-b]pyridazin-6-yl)pyrrolidin-3-yl)methanol], the IC50 was more than 1000 nM against hENPP2 [1] and 0.01 to 25 nM on hENPP2 [2].

On to `CCc1nc2ccc(N3CCN(S(C)(=O)=O)C(CCO)C3)nn2c1N(C)c1nc(-c2ccc(F)cc2)cs1` (stereo not shown) [Cpd 72, 2-(4-(2-ethyl-3-((4-(4-fluorophenyl)thiazol-2-yl)(methyl)amino)imidazo[1,2-b]pyridazin-6-yl)-1-(methylsulfonyl)piperazin-2-yl) ethanol], for which the IC50 was in the range of 500 to 1000 nM on hENPP2 [1] and 0.01 to 25 nM against hENPP2 [2].

With `CCOC(=O)C1CCN(c2ccc3nc(CC)c(N(C)c4nc(-c5ccc(F)cc5)cs4)n3n2)CC1` [Compound 95, ethyl 1-(2-ethyl-3-((4-(4-fluorophenyl)thiazol-2-yl)(methyl)amino)imidazo[1,2-b]pyridazin-6-yl)piperidine-4-carboxylate], the results for the IC50 at hENPP2 [1] and on hENPP2 [2] were more than 1000 nM and 0.01 to 25 nM, respectively.

For `CCc1nc2ccc(N3CCC(N4CCOCC4)CC3)nn2c1N(C)c1nc(-c2ccc(F)cc2)cs1` [Cpd 109, N-(2-ethyl-6-(4-morpholino-piperidin-1-yl)imidazo[1,2-b]pyridazin-3-yl)-4-(4-fluorophenyl)-N-methylthiazol-2-amine], the values for the IC50 at hENPP2 [1] and on hENPP2 [2] were 500 to 1000 nM and 0.01 to 25 nM, respectively.

Turning to `CCc1nc2ccc(N3CCCC(CNC(=O)OC(C)(C)C)C3)nn2c1N(C)c1nc(-c2ccc(F)cc2)cs1` (stereo not shown) [Cpd 100, [1-(2-Ethyl-3-{[4-(4-fluoro-phenyl)-thiazol-2-yl]-methyl-amino}-imidazo[1,2-b]pyridazin-6-yl)-piperidin-3-ylmethyl]-carbamic acid tert-butyl ester], the values for the IC50 against hENPP2 [1] and against hENPP2 [2] were more than 1000 nM and 0.01 to 25 nM, respectively.

As for `CCc1nc2ccc(N3CCC(N4CCSCC4)C3)nn2c1N(C)c1nc(-c2ccc(F)cc2)cs1` (stereo not shown) [Cpd 131, N-(2-ethyl-6-(3-thiomorpholino-pyrrolidin-1-yl)imidazo[1,2-b]pyridazin-3-yl)-4-(4-fluorophenyl)-N-methylthiazol-2-amine], the half-maximal inhibitory concentration (IC50) at hENPP2 [1] was more than 1000 nM; against hENPP2 [2] it was 0.01 to 25 nM.

In the case of `CCc1nc2ccc(N3CCC(C(=O)NCCO)CC3)nn2c1N(C)c1nc(-c2ccc(F)cc2)cs1` [Compound 97, 1-(2-ethyl-3-((4-(4-fluorophenyl)thiazol-2-yl)(methyl)amino)imidazo[1,2-b]pyridazin-6-yl)-N-(2-hydroxyethyl)piperidine-4-carboxamide], the IC50 against hENPP2 [1] fell in the range of 500 to 1000 nM; against hENPP2 [2] it was 0.01 to 25 nM.

`CCc1nc2ccc(N3CCCC(CO)C3)nn2c1N(C)c1nc(-c2ccc(F)cc2)cs1` (stereo not shown) [Cpd 94, (1-(2-ethyl-3-((4-(4-fluorophenyl)thiazol-2-yl)(methyl)amino)imidazo[1,2-b]pyridazin-6-yl)piperidin-3-yl)methanol]: the IC50 on hENPP2 [1] is more than 1000 nM; against hENPP2 [2], 0.01 to 25 nM.

In the case of `CCc1nc2cnc(N3CCN(CC(=O)N4CCCC4)CC3)cn2c1N(C)c1nc(-c2ccc(F)cc2)c(C#N)s1` [Cpd 8, 2-((2-ethyl-6-(4-(2-oxo-2-(pyrrolidin-1-yl)ethyl)piperazin-1-yl)imidazo[1,2-a]pyrazin-3-yl)(methyl)amino)-4-(4-fluorophenyl) thiazole-5-carbonitrile], the IC50 lay within 100 to 500 nM at hENPP2 [1] and 0.01 to 25 nM against hENPP2 [2].

Take `CCc1nc2ccc(N3CC4CN(S(=O)(=O)CCCN5CCOCC5)CC4C3)nn2c1N(C)c1nc(-c2ccc(F)cc2)cs1` (stereo not shown) [Compound 127, N-(2-ethyl-6-(5-(3-morpholinopropylsulfonyl)hexahydropyrrolo[3,4-c]pyrrol-2(1H)-yl)imidazo[1,2-b]pyridazin-3-yl)-4-(4-fluorophenyl)-N-methylthiazol-2-amine]: the IC50 at hENPP2 [1] is more than 1000 nM; on hENPP2 [2], 0.01 to 25 nM.

Turning to `CCc1nc2ccc(N3CCCC(C(N)=O)C3)nn2c1N(C)c1nc(-c2ccc(F)cc2)cs1` (stereo not shown) [Cpd 99, 1-(2-ethyl-3-((4-(4-fluorophenyl)thiazol-2-yl)(methyl)amino)imidazo[1,2-b]pyridazin-6-yl)piperidine-3-carboxamide], the results for the IC50 against hENPP2 [1] and against hENPP2 [2] were more than 1000 nM and 0.01 to 25 nM, respectively.

Regarding `CCc1nc2ccc(N3CCN(CCN4CCCC4=O)CC3)nn2c1N(C)c1nc(-c2ccc(F)cc2)cs1` [Cpd 46, 1-(2-(4-(2-ethyl-3-((4-(4-fluorophenyl)thiazol-2-yl)(methyl)amino)imidazo[1,2-b]pyridazin-6-yl)piperazin-1-yl)ethyl)pyrrolidin-2-one], the IC50 lay in the range of 100 to 500 nM on hENPP2 [1] and 0.01 to 25 nM against hENPP2 [2].

For the molecule `CCc1nc2ccc(N3CCN(CC(=O)N4CCCC4CO)CC3)nn2c1N(C)c1nc(-c2ccc(F)cc2)cs1` (stereo not shown) [Cpd 29], the IC50 at hENPP2 [1] is 100 to 500 nM; at hENPP2 [2], 0.01 to 25 nM.

For `CCc1nc2ccc(N3CCN[C@H](CO)C3)nn2c1N(C)c1nc(-c2ccc(F)cc2)cs1` [Cpd 60, (S)-(4-(2-ethyl-3-((4-(4-fluorophenyl)thiazol-2-yl)(methyl)amino)imidazo[1,2-b]pyridazin-6-yl)piperazin-2-yl)methanol], the values for the IC50 at hENPP2 [1] and against hENPP2 [2] were more than 1000 nM and 0.01 to 25 nM, respectively.

In the case of `CCc1nc2ccc(N3CCN(C(=O)C4CCCO4)CC3)nn2c1N(C)c1nc(-c2ccc(F)cc2)cs1` (stereo not drawn) [Cpd 47, (4-(2-ethyl-3-((4-(4-fluorophenyl)thiazol-2-yl)(methyl)amino)imidazo[1,2-b]pyridazin-6-yl)piperazin-l-yl)(tetrahydrofuran-2-yl)methanone], the IC50 against hENPP2 [1] was more than 1000 nM; at hENPP2 [2], 0.01 to 25 nM.

For `CCc1nc2ccc(N3CCN4C(=O)OC[C@@H]4C3)nn2c1N(C)c1nc(-c2ccc(F)cc2)cs1` [Compound 61, (S)-7-(2-ethyl-3-((4-(4-fluorophenyl)thiazol-2-yl)(methyl)amino)imidazo[1,2-b]pyridazin-6-yl)tetrahydro-1H-oxazolo[3,4-a]pyrazin-3 (5H)-one], the IC50 against hENPP2 [1] was more than 1000 nM; on hENPP2 [2], 0.01 to 25 nM.

On to `CCc1nc2ccc(N3CCOCC3)nn2c1N(C)c1nc(-c2ccc(F)cc2)cs1` [Cpd 78, N-(2-ethyl-6-morpholinoimidazo [1,2-b]pyridazin-3-yl)-4-(4-fluorophenyl)-N-methylthiazol-2-amine], for which the IC50 is more than 1000 nM against hENPP2 [1] and 0.01 to 25 nM on hENPP2 [2].

On to `CCc1nc2ccc(N3CCC(N4CCN(CCCO)CC4)C3)nn2c1N(C)c1nc(-c2ccc(F)cc2)cs1` (stereo not shown) [Cpd 145, 3-(4-(1-(2-ethyl-3-((4-(4-fluorophenyl)thiazol-2-yl)(methyl)amino)imidazo[1,2-b]pyridazin-6-yl)pyrrolidin-3-yl)piperazin-1-yl)propan-1-ol], for which the IC50 against hENPP2 [1] fell in the range of 500 to 1000 nM; against hENPP2 [2] it was 0.01 to 25 nM.

In the case of `CCc1nc2ccc(N3CCC(NS(C)(=O)=O)CC3)nn2c1N(C)c1nc(-c2ccc(F)cc2)cs1` [Cpd 83, N-(1-(2-ethyl-3-((4-(4-fluorophenyl)thiazol-2-yl)(methyl)amino)imidazo[1,2-b]pyridazin-6-yl)piperidin-4-yl)methane-sulfonamide], the IC50 against hENPP2 [1] was more than 1000 nM; on hENPP2 [2] it was 0.01 to 25 nM.

`CN(c1nc(-c2ccc(F)cc2)cs1)c1c(CCCO)nc2ccc(C3CCN(S(C)(=O)=O)CC3)nn12` [Compound 200, 3-(3-((4-(4-fluorophenyl)thiazol-2-yl)(methyl)amino)-6-(1-(methylsulfonyl)piperidin-4-yl)imidazo[1,2-b]pyridazin-2-yl)propan-1-ol]: the IC50 was more than 1000 nM on hENPP2 [1] and 0.01 to 25 nM on hENPP2 [2].

Turning to `CCc1nc2ccc(N3CCC(O)C3)nn2c1N(C)c1nc(-c2ccc(F)cc2)c(C#N)s1` (stereo not shown) [Cpd 171, 2-((2-ethyl-6-(3-hydroxypyrrolidin-1-yl)imidazo[1,2-b]pyridazin-3-yl)(methyl)amino)-4-(4-fluorophenyl) thiazole-5-carbonitrile], the results for the IC50 against hENPP2 [1] and at hENPP2 [2] were 100 to 500 nM and 0.01 to 25 nM, respectively.

Take `CCc1nc2ccc(N3CCC(C(N)=O)CC3)nn2c1N(C)c1nc(-c2ccc(F)cc2)cs1` [Cpd 98, 1-(2-ethyl-3-((4-(4-fluorophenyl)thiazol-2-yl)(methyl)amino)imidazo[1,2-b]pyridazin-6-yl)piperidine-4-carboxamide]: the IC50 is more than 1000 nM against hENPP2 [1] and 0.01 to 25 nM at hENPP2 [2].
